Results on one compound are retold here after PMC6428840, “The Arabidopsis H3K27me3 demethylase JUMONJI 13 is a temperature and photoperiod dependent flowering repressor” (Nature Communications, 2019).

The target of this experiment is T1, JMJ13CD (JMJ13 catalytic domain) (Arabidopsis thaliana, UniProt F4KIX0).
T1 construct: catalytic domain, residues 90-578 (jumonji, helical and C4HCHC zinc finger domains); His6-SUMO tag removed by ulp1; E. coli BL21(DE3) RIL; Ni2+ in place of Fe2+
Description: X-ray crystal structure, […] Å. Format: binding. The settings on record: JMJ13-NOG crystals soaked with 10 mM H3(24-35)K27me3 peptide; Ni2+ in place of Fe2+; pH 6.5; active site, α-KG analog.

T1 sequence (F4KIX0 90-578): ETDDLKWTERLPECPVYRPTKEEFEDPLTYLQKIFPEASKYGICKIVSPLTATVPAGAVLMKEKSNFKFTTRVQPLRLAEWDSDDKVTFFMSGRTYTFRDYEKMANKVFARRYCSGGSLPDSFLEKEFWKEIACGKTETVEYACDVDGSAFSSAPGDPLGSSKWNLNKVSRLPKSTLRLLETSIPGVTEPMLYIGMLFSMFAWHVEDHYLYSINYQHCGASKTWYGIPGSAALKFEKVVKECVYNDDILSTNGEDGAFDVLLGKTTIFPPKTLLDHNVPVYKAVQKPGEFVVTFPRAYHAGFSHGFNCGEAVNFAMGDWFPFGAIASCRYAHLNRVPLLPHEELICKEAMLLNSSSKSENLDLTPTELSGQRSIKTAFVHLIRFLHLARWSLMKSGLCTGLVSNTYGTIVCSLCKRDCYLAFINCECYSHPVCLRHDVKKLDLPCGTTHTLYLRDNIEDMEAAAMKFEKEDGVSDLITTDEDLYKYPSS

`O=C(O)CNC(=O)C(=O)O` [NOG, N-oxalylglycine]: the “X-ray crystal structure, 2.6 Å” value was “in complex with the α-KG analog N-oxalylglycine (NOG) and an H3K27me3 peptide”.
